Source: US8371376B2, “Method for pre-treatment of subterranean sites adjacent to water injection wells” (E. I. du Pont de Nemours and Company, priority 2010, dated 2013)

Assay: Titration of sand/amine/brine mixture with 1N HCl, amine concentration by GC
Format: physicochemical
Conditions: initial pH 8.4, before HCl addition; 380 ppm expected if all dissolved
Description: Helium was used as the carrier gas.
38 milligrams (mg) of N N-Dimethyl-1-Dodecanamine (hereafter referred to as “the amine”) was added to 10.210 gr of Pentane. This solution was added to 10.1845 gr of specific sand layers (Oa and Ob) obtained from the Schrader Bluff formation of the Milne Point Unit of the Alaskan North slope. The oil content of the sand was first removed using a mixture of methanol and toluene (50/50, volume/volume) as solvent washes. The solvent mixture was subsequently evaporated off the core sand to produce clean, dry, flowable core sand. This sand was mixed with the amine and pentane solution to produce a slurry. This slurry was thoroughly mixed and the pentane was evaporated off leaving the amine on the sand (hereafter referred to as sand/amine mixture). 100 ml of brine #2 (Table 3) was added to the sand/amine mixture to create the sand/amine/brine mixture. […] The fact that the amine was not detected underlined its strong binding to the sand particles. […] The data underlines the remarkable efficiency of an acid at ionizing and removing the amine from the sand.

CCCCCCCCCCCCN(C)C [N-N-dimethyl-1-dodeanamine, N N-Dimethyl-1-Dodecanamine]
amine conc. in sand/amine/brine mixture: < 1 ppm
